Data: patent US11903916B2, “Methods of using probenecid for treatment of coronavirus infections” (University of Georgia Research Foundation, Inc., priority 2020, dated 2024)
Like-named read-outs stand apart in the source and are kept apart here.

Tests used:
[1] = system: SARS-CoV-2; type: cell-based; settings: for reduction in plaque formation compared to DMSO treated infected control: 24 h pre-treatment, Vero E6, MOI 0.01, 4 days
[2] = system: SARS-CoV-2; type: cell-based; settings: for reduction in plaque formation compared to DMSO treated infected control: post-treatment after 1 hour infection, Vero E6, MOI 0.01, 4 days, FIG. 3

**Q.** Which viral titer/plaque formation ([1]; 24 hour pretreatment at the concentrations tested) does the source give for CCCN(CCC)S(=O)(=O)c1ccc(C(=O)O)cc1 [Probenecid, 4-[(dipropylamino)sulfony1] benzoic acid] here?
**A.** The viral titer/plaque formation was “significantly reduces viral titer/plaque formation”.

**Q.** And the “reduction in plaque formation compared to DMSO treated infected control” value (shortened to “reduction in plaque formation”) ([1]; probenecid 0.0001 μM, another experiment, FIG. 2)?
**A.** Its value is about 50%.

**Q.** And the “reduction in plaque formation” value ([1]; probenecid 0.1 μM, FIG. 1)?
**A.** Its value is about 72%.

**Q.** What about the viral titer/plaque formation ([2]; post-treatment at the concentrations tested) of the same compound?
**A.** Its viral titer/plaque formation is “significantly reduces viral titer/plaque formation”.

**Q.** What about the “reduction in plaque formation” value ([2]; probenecid 0.0001 μM) of the same compound?
**A.** The value was about 40%.

**Q.** What about the “reduction in plaque formation” value ([2]; probenecid 5 μM) of the same compound?
**A.** The value was about 90%.
